In the NIST ThermoML archive (doi:10.1021/je030147g):

How the values were obtained:
[1] = xn = mol fraction of the nth substance listed; details: 101.33 kPa, Liquid
[2] = refractive index (Na D-line) (dimensionless); xn = mol fraction of the nth substance listed; details: 101.33 kPa, Liquid

CCCCN(CCCC)CCCC [tributylamine] + c1ccncc1
Details	mass density, 298.15 K [kg/m3]	mass density, 303.15 K [kg/m3]	mass density, 308.15 K [kg/m3]	refractive index, 298.15 K	refractive index, 303.15 K	refractive index, 308.15 K	speed of sound, 298.15 K [m/s]	viscosity, 298.15 K [mPa·s]	viscosity, 303.15 K [mPa·s]	viscosity, 308.15 K [mPa·s]
[1], x1 = 0.0977	927.2	922.3	917.4	–	–	–	1363	0.895	0.833	0.771
[1], x1 = 0.1951	890.5	885.6	880.7	–	–	–	1333	0.914	0.849	0.783
[1], x1 = 0.2949	862.6	858	853.3	–	–	–	1308	0.941	0.872	0.804
[1], x1 = 0.3938	841.3	836.8	832.2	–	–	–	1290	0.971	0.898	0.825
[1], x1 = 0.4898	824.7	820.3	815.9	–	–	–	1282	1.002	0.925	0.848
[1], x1 = 0.5884	810.8	806.5	802.1	–	–	–	1278	1.038	0.957	0.876
[1], x1 = 0.6899	799	794.7	790.5	–	–	–	1275	1.077	0.993	0.909
[1], x1 = 0.7846	789.9	785.7	781.6	–	–	–	1271	1.122	1.031	0.94
[1], x1 = 0.8869	781.6	777.5	773.3	–	–	–	1266	1.175	1.077	0.979
[1], x1 = 1	773.9	769.2	765.7	–	–	–	1262	1.239	1.124	1.028
[2], x1 = 0.0977	–	–	–	1.4866	1.483	1.4795	–	–	–	–
[2], x1 = 0.1951	–	–	–	1.4708	1.4685	1.4662	–	–	–	–
[2], x1 = 0.2949	–	–	–	1.4606	1.4574	1.4542	–	–	–	–
[2], x1 = 0.3938	–	–	–	1.4513	1.4491	1.447	–	–	–	–
[2], x1 = 0.4898	–	–	–	1.4464	1.4428	1.4392	–	–	–	–
[2], x1 = 0.5884	–	–	–	1.4403	1.4376	1.4348	–	–	–	–
[2], x1 = 0.6899	–	–	–	1.4359	1.4335	1.4311	–	–	–	–
[2], x1 = 0.7846	–	–	–	1.4333	1.43	1.4268	–	–	–	–
[2], x1 = 0.8869	–	–	–	1.4303	1.4277	1.4252	–	–	–	–
[2], x1 = 1	–	–	–	1.4276	1.4255	1.4228	–	–	–	–

ClC=C(Cl)Cl [trichloroethene] + CCCCN(CCCC)CCCC
Details	mass density, 298.15 K [kg/m3]	mass density, 303.15 K [kg/m3]	mass density, 308.15 K [kg/m3]	refractive index, 298.15 K	refractive index, 303.15 K	refractive index, 308.15 K	speed of sound, 298.15 K [m/s]	viscosity, 298.15 K [mPa·s]	viscosity, 303.15 K [mPa·s]	viscosity, 308.15 K [mPa·s]
[1], x2 = 0	1456.7	1447.1	1439.5	–	–	–	1028	0.595	0.571	0.549
[1], x2 = 0.0996	1299.3	1291.8	1284.4	–	–	–	1054	0.652	0.622	0.592
[1], x2 = 0.1953	1186.7	1180.1	1173.3	–	–	–	1084	0.713	0.675	0.637
[1], x2 = 0.2913	1098.3	1092.1	1086	–	–	–	1108	0.776	0.73	0.684
[1], x2 = 0.3902	1025.1	1019.6	1013.9	–	–	–	1129	0.842	0.788	0.734
[1], x2 = 0.4875	966.3	961	955.8	–	–	–	1151	0.909	0.846	0.783
[1], x2 = 0.5906	914.7	909.8	904.9	–	–	–	1170	0.978	0.907	0.835
[1], x2 = 0.6843	875	870.3	865.7	–	–	–	1187	1.041	0.962	0.882
[1], x2 = 0.7846	838.1	833.7	829.1	–	–	–	1205	1.105	1.018	0.93
[1], x2 = 0.8835	806.5	802.2	797.8	–	–	–	1227	1.167	1.071	0.976
[2], x2 = 0	–	–	–	1.4752	1.4722	1.469	–	–	–	–
[2], x2 = 0.0996	–	–	–	1.4632	1.4604	1.4576	–	–	–	–
[2], x2 = 0.1953	–	–	–	1.4563	1.453	1.4495	–	–	–	–
[2], x2 = 0.2913	–	–	–	1.4502	1.4469	1.4436	–	–	–	–
[2], x2 = 0.3902	–	–	–	1.4448	1.4417	1.4386	–	–	–	–
[2], x2 = 0.4875	–	–	–	1.4402	1.4377	1.4352	–	–	–	–
[2], x2 = 0.5906	–	–	–	1.437	1.4343	1.4317	–	–	–	–
[2], x2 = 0.6843	–	–	–	1.4346	1.4315	1.4284	–	–	–	–
[2], x2 = 0.7846	–	–	–	1.4318	1.4295	1.427	–	–	–	–
[2], x2 = 0.8835	–	–	–	1.4298	1.4272	1.4246	–	–	–	–

ClC(Cl)=C(Cl)Cl [tetrachloroethene] + CCCCN(CCCC)CCCC
x2 = 0
Details	mass density, 298.15 K [kg/m3]	mass density, 303.15 K [kg/m3]	mass density, 308.15 K [kg/m3]	refractive index, 298.15 K	refractive index, 303.15 K	refractive index, 308.15 K	speed of sound, 298.15 K [m/s]	viscosity, 298.15 K [mPa·s]	viscosity, 303.15 K [mPa·s]	viscosity, 308.15 K [mPa·s]
[1]	1616	1607.5	1597.5	–	–	–	1033	0.875	0.831	0.791
[2]	–	–	–	1.5036	1.5005	1.4978	–	–	–	–

CCCCN(CCCC)CCCC [tributylamine] + ClC=C(Cl)Cl
x1 = 1
Details	mass density, 298.15 K [kg/m3]	mass density, 303.15 K [kg/m3]	mass density, 308.15 K [kg/m3]	refractive index, 298.15 K	refractive index, 303.15 K	refractive index, 308.15 K	speed of sound, 298.15 K [m/s]	viscosity, 298.15 K [mPa·s]	viscosity, 303.15 K [mPa·s]	viscosity, 308.15 K [mPa·s]
[1]	773.3	769.2	765.7	–	–	–	1262	1.239	1.124	1.028
[2]	–	–	–	1.4276	1.4255	1.4228	–	–	–	–

CCN(CC)CC [triethylamine] + CCCCN(CCCC)CCCC
x2 = 0
Details	mass density, 298.15 K [kg/m3]	mass density, 303.15 K [kg/m3]	mass density, 308.15 K [kg/m3]	refractive index, 298.15 K	refractive index, 303.15 K	refractive index, 308.15 K	speed of sound, 298.15 K [m/s]	viscosity, 298.15 K [mPa·s]	viscosity, 303.15 K [mPa·s]	viscosity, 308.15 K [mPa·s]
[1]	723.3	718.6	713.7	–	–	–	1123	0.367	0.349	0.332
[2]	–	–	–	1.3992	1.3958	1.3929	–	–	–	–

CCCCN(CCCC)CCCC [tributylamine] + C1CCOC1
Details	mass density, [1] [kg/m3]	refractive index, [2]	speed of sound, [1] [m/s]	viscosity, [1] [mPa·s]
298.15 K, x1 = 0.1033	853.3	1.412	1283	0.571
298.15 K, x1 = 0.2033	833.4	1.415	1278	0.656
298.15 K, x1 = 0.3041	818.9	1.418	1274	0.741
298.15 K, x1 = 0.4012	808.1	1.42	1271	0.818
298.15 K, x1 = 0.5024	799.2	1.4229	1269	0.897
298.15 K, x1 = 0.5974	792.5	1.4235	1267	0.967
298.15 K, x1 = 0.6814	787.5	1.4249	1266	1.028
298.15 K, x1 = 0.7898	782.1	1.4265	1264	1.1
298.15 K, x1 = 0.8941	777.8	1.4269	1263	1.167
298.15 K, x1 = 1	773.9	1.4276	1262	1.239
303.15 K, x1 = 0.1033	847.9	1.4094	–	0.539
303.15 K, x1 = 0.2033	828.4	1.4141	–	0.618
303.15 K, x1 = 0.3041	814.2	1.4155	–	0.693
303.15 K, x1 = 0.4012	803.5	1.4178	–	0.763
303.15 K, x1 = 0.5024	794.7	1.4203	–	0.833
303.15 K, x1 = 0.5974	788.2	1.4211	–	0.896
303.15 K, x1 = 0.6814	783.1	1.4226	–	0.949
303.15 K, x1 = 0.7898	777.9	1.4238	–	1.014
303.15 K, x1 = 0.8941	773.6	1.4246	–	1.071
303.15 K, x1 = 1	769.2	1.4254	–	1.124
308.15 K, x1 = 0.1033	842.5	1.4068	–	0.509
308.15 K, x1 = 0.2033	823.5	–	–	0.581
308.15 K, x1 = 0.3041	809.3	1.413	–	0.646
308.15 K, x1 = 0.4012	798.9	1.4156	–	0.708
308.15 K, x1 = 0.5024	790.3	1.4178	–	0.769
308.15 K, x1 = 0.5974	783.8	1.4188	–	0.825
308.15 K, x1 = 0.6814	778.9	1.4203	–	0.871
308.15 K, x1 = 0.7898	773.6	1.4212	–	0.928
308.15 K, x1 = 0.8941	769.4	1.4224	–	0.976
308.15 K, x1 = 1	765.7	1.4228	–	1.02

CCCCN(CCCC)CCCC [tributylamine] + ClC(Cl)=C(Cl)Cl
Details	mass density, [1] [kg/m3]	refractive index, [2]	speed of sound, [1] [m/s]	viscosity, [1] [mPa·s]
298.15 K, x1 = 0.104	1433.8	1.4872	1052	0.917
298.15 K, x1 = 0.2059	1295.5	1.4748	1073	0.958
298.15 K, x1 = 0.3068	1185.4	1.4659	1094	0.996
298.15 K, x1 = 0.4073	1095	1.4566	1116	1.033
298.15 K, x1 = 0.4967	1026.9	1.4506	1136	1.065
298.15 K, x1 = 0.6069	955.4	1.4437	1162	1.104
298.15 K, x1 = 0.699	904.2	1.4396	1184	1.136
298.15 K, x1 = 0.8018	854.3	1.435	1209	1.172
298.15 K, x1 = 0.9007	812	1.4316	1235	1.206
298.15 K, x1 = 1	773.9	1.4276	1262	1.239
303.15 K, x1 = 0.104	1425.9	1.4842	–	0.869
303.15 K, x1 = 0.2059	1288.1	1.4721	–	0.902
303.15 K, x1 = 0.3068	1181.4	–	–	0.93
303.15 K, x1 = 0.4073	1089.1	1.4539	–	0.96
303.15 K, x1 = 0.4967	1021.5	1.4479	–	0.99
303.15 K, x1 = 0.6069	949.9	1.4415	–	1.018
303.15 K, x1 = 0.699	899.4	1.4367	–	1.053
303.15 K, x1 = 0.8018	849.4	1.4325	–	1.081
303.15 K, x1 = 0.9007	808	1.4289	–	1.104
303.15 K, x1 = 1	769.2	1.4255	–	1.124
308.15 K, x1 = 0.104	1418.2	1.481	–	0.818
308.15 K, x1 = 0.2059	1281.3	1.4692	–	0.844
308.15 K, x1 = 0.3068	1172.5	1.4594	–	0.869
308.15 K, x1 = 0.4073	1083.2	1.451	–	0.893
308.15 K, x1 = 0.4967	1015.9	1.445	–	0.914
308.15 K, x1 = 0.6069	945.2	1.4392	–	0.94
308.15 K, x1 = 0.699	894.7	1.434	–	0.961
308.15 K, x1 = 0.8018	845.3	1.4298	–	0.984
308.15 K, x1 = 0.9007	803.4	1.4263	–	1.006
308.15 K, x1 = 1	765.7	1.4228	–	1.028
